According to patent publication US20180214691A1, “NEUROMODULATION DEVICE” (GALVANI BIOELECTRONICS LIMITED, priority 2015, published 2018):
“Also recorded” adds a separate entry of the source.

Assays:
cats = assay: Cat PGE2 model of bladder dysfunction; format: in vivo; details: PGE2 cats versus controls (each cat before PGE2 installation is its own control); N=3
Description: Pelvic nerve stimulation is also effective in other models of OAB.

rats = assay: Cystometrograms in the rat PGE2 model of bladder dysfunction; format: in vivo
Description: In the following examples, two accepted animal models of bladder dysfunction were used. The first was a PGE2 (prostoglandin E2) model, in which installation of PGE2 into rats induces a hyperactive bladder response.
Animal models of bladder dysfunction need to take into account the fact that rodent (e.g. rat) urination behaviour differs from that of humans. However, the following parameters (as defined in Andersson et al. Neurourology and Urodynamics, 30: 636-646 (2011), which is incorporated herein by reference) are accepted measures against which therapeutic interventions can be assessed (adapted from Andersson et al.): • (a) Baseline pressure: minimum pressure between two micturitions. This parameter is important as an internal control for the procedure. • (b) Intermicturition pressure: mean pressure between two micturitions. The IMP is related to the occurrence of non-voiding contractions (NVCs). The more frequent and with higher amplitude the NVCs, the higher the IMP will be. • (c) Threshold pressure: intravesical pressure immediately before micturition. • (d) Maximum pressure: maximum bladder pressure during a micturition cycle. Also known as peak pressure, maximum voiding pressure, or maximum intravesical pressure. It should be noted that this pressure is not identical with the micturition pressure. The true micturition pressure is the pressure at which fluid starts to flow. • (e) Spontaneous activity (SA) or mean intermicturition oscillatory pressure: intermicturition pressure minus baseline pressure. This parameter is an approximate index of spontaneous bladder contractions between micturitions. SA will increase if there are frequent NVCs between micturitions. • (f) Non-voiding contractions (NVCs): defined as increases in intravesical pressure during cystometry, not associated with release of fluid. […] Since threshold pressure is the pressure at onset of micturition, subtraction of baseline pressure from threshold pressure gives the pressure variation between micturitions. • (l) Voiding efficiency: the voided volume expressed as a percentage of bladder capacity (i.e. voided volume/bladder capacity*100) • (m) External urethral sphincter electromyography: electrodes are placed into the external urethral sphincter and electromyography is recorded during bladder filling and voiding. A number of the parameters above were measured for both PGE2 and SHR rats.
A PE-90 polyethylene catheter was inserted into the bladder lumen through a small incision in the apex of the bladder dome. The bladder catheter was connected an infusion pump and a pressure transducer to measure bladder pressure. Additionally, two PFA-coated platinum-iridium wires (0.0055 inch diameter) were bilaterally inserted percutaneously into the external urethral sphincter (EUS) to record EUS EMG. Alternatively, a bipolar paddle electrode was placed intra-abdominally between the external urethral sphincter (EUS) and pubic symphysis (platinum-iridium contacts facing the urethra) to record EUS EMG.
At the start of an experiment, the bladder was continuously filled with physiological saline at room temperature using an infusion pump with an open urethra for 45 minutes to allow recovery post-surgery. The bladder was subsequently emptied, and CMG's were recorded. A single CMG event was characterized by a quiet period, a filling period, and a voiding period at the end of the voiding event, the infusion pump was turned off. The bladder was then emptied and subsequent CMG's were conducted.
PGE2: Control CMG's were conducted under saline infusion. After 2-3 subsequent control CMG events, the bladder was then infused continuously with PGE2 solution for 1 hour to allow for the bladder to reach drug related steady state. Multiple CMG's were then taken.
CMG parameters recorded were previously described by Andersson et al. as outlined above in example 1: model validation. […]

Compound: CCCCC[C@H](O)/C=C/[C@H]1[C@H](O)CC(=O)[C@@H]1C/C=C\CCCC(=O)O [PGE2, prostoglandin E2]
- bladder capacity (cats): dose dependent reduction
- NVC duration (rats; PGE2 rats versus controls): decreased; also recorded: reduction
- bladder capacity (rats; PGE2 rats versus controls): reduction
- maximum bladder pressure (rats; PGE2 rats versus controls): reduction
- threshold bladder pressure (rats; PGE2 rats versus controls): reduction
- Δbladder pressure (threshold minus baseline bladder pressure) (rats; PGE2 rats versus controls): reduction
- voiding efficiency (rats; PGE2 rats versus controls (each rat before PGE2 installation is its own control), bladder infused with PGE2 solution for 1 hour): decreased voiding efficiency; also recorded: statistically non-significant reduction
- external urethral sphincter (EUS) EMG activity (rats; PGE2 rats versus controls, filling and voiding phases of a CMG event): abnormal; also recorded: increase
- non-voiding contraction (NVC) magnitude (bladder pressure area under the curve) (rats; PGE2 rats versus controls, filling phase): decreased magnitude; also recorded: reduction
